Test results taken from PubChem BioAssay AID1918994 (Molecular Pharmacology Branch, DTP, NCI, 2023).

System: 292921-168-R-J2-PDC complex spheroid growth
Assay: Anticancer human tumor 292921-168-R-J2-PDC patient-derived pancreatic carcinoma cell line growth inhibition [AhR]
Settings: for IC50: curve of first compound; for viability, T/C: stronger effect = lower value
In short: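 Spheroids combined tumor cells with HUVEC endothelial cells and human MSCs as stroma. AhR antagonists were paired with standard or investigational drugs, each dosed in half-log steps down from near clinical Cmax, or from 10 microM where Cmax was unknown.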
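Further: spheroids exposed to compounds for seven days after three days of growth.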

Question: Which IC50 (second compound 0.1 µM) does the source give for CC(C)CC(NC(=O)C(Cc1ccccc1)NC(=O)c1cnccn1)B(O)O (stereo not given) + Cc1ccccc1N=Nc1ccc(NC(=O)c2ccnn2C)c(C)c1 here?
Answer: 6.4 nM

Question: And the IC50 (second compound 0.316 µM)?
Answer: 6.09 nM

Question: What about the IC50 (second compound 1 µM) of the same molecule?
Answer: 5.95 nM

Question: And the IC50 (second compound 3.16 µM)?
Answer: 5.13 nM

Question: And the IC50 (second compound 10 µM)?
Answer: 3.97 nM

Question: And the viability, T/C (second compound 0.1 µM, first compound 0.000949 µM)?
Answer: 91.6%

Question: What about the viability, T/C (second compound 0.1 µM, first compound 0.003 µM) of the same molecule?
Answer: 110%

Question: And the viability, T/C (second compound 0.1 µM, first compound 0.00949 µM)?
Answer: 23.4%

Question: And the viability, T/C (second compound 0.1 µM, first compound 0.03 µM)?
Answer: 1.67%

Question: And the viability, T/C (second compound 0.1 µM, first compound 0.0949 µM)?
Answer: 0.43%

Question: What about the viability, T/C (second compound 0.1 µM, first compound 0.3 µM) of the same molecule?
Answer: 0.32%

Question: And the viability, T/C (second compound 0.316 µM, first compound 0.000949 µM)?
Answer: 82%

Question: What about the viability, T/C (second compound 0.316 µM, first compound 0.003 µM) of the same molecule?
Answer: 102%

Question: And the viability, T/C (second compound 0.316 µM, first compound 0.00949 µM)?
Answer: 23.9%

Question: And the viability, T/C (second compound 0.316 µM, first compound 0.03 µM)?
Answer: 1.24%

Question: What about the viability, T/C (second compound 0.316 µM, first compound 0.0949 µM) of the same molecule?
Answer: 3.16%

Question: What about the viability, T/C (second compound 0.316 µM, first compound 0.3 µM) of the same molecule?
Answer: 0.68%

Question: And the viability, T/C (second compound 1 µM, first compound 0.000949 µM)?
Answer: 82.3%

Question: What about the viability, T/C (second compound 1 µM, first compound 0.003 µM) of the same molecule?
Answer: 94.3%

Question: What about the viability, T/C (second compound 1 µM, first compound 0.00949 µM) of the same molecule?
Answer: 23.8%

Question: What about the viability, T/C (second compound 1 µM, first compound 0.03 µM) of the same molecule?
Answer: 1.24%

Question: What about the viability, T/C (second compound 1 µM, first compound 0.0949 µM) of the same molecule?
Answer: 0.41%

Question: What about the viability, T/C (second compound 1 µM, first compound 0.3 µM) of the same molecule?
Answer: 0.93%

Question: What about the viability, T/C (second compound 3.16 µM, first compound 0.000949 µM) of the same molecule?
Answer: 77.5%

Question: And the viability, T/C (second compound 3.16 µM, first compound 0.003 µM)?
Answer: 82.8%

Question: What about the viability, T/C (second compound 3.16 µM, first compound 0.00949 µM) of the same molecule?
Answer: 15.3%

Question: What about the viability, T/C (second compound 3.16 µM, first compound 0.03 µM) of the same molecule?
Answer: 1.68%

Question: What about the viability, T/C (second compound 3.16 µM, first compound 0.0949 µM) of the same molecule?
Answer: 2.65%

Question: What about the viability, T/C (second compound 3.16 µM, first compound 0.3 µM) of the same molecule?
Answer: 0.81%

Question: And the viability, T/C (second compound 10 µM, first compound 0.000949 µM)?
Answer: 59.9%

Question: What about the viability, T/C (second compound 10 µM, first compound 0.003 µM) of the same molecule?
Answer: 62%

Question: And the viability, T/C (second compound 10 µM, first compound 0.00949 µM)?
Answer: 15.7%

Question: What about the viability, T/C (second compound 10 µM, first compound 0.03 µM) of the same molecule?
Answer: 1.7%

Question: And the viability, T/C (second compound 10 µM, first compound 0.0949 µM)?
Answer: 1.05%

Question: And the viability, T/C (second compound 10 µM, first compound 0.3 µM)?
Answer: 0.32%

Question: What does the source list for COc1cc(Nc2ncc3c(n2)-c2ccc(Cl)cc2C(c2c(F)cccc2OC)=NC3)ccc1C(=O)O + Cc1ccccc1N=Nc1ccc(NC(=O)c2ccnn2C)c(C)c1?
Answer: IC50 (second compound 0.1 µM): < 31.6 nM; IC50 (second compound 0.316 µM): < 31.6 nM; IC50 (second compound 1 µM): < 31.6 nM; IC50 (second compound 3.16 µM): < 31.6 nM; IC50 (second compound 10 µM): < 31.6 nM; viability, T/C (second compound 0.1 µM, first compound 0.0316 µM): 45.7%; viability, T/C (second compound 0.1 µM, first compound 0.1 µM): 37.9%; viability, T/C (second compound 0.1 µM, first compound 0.316 µM): 53.5%; viability, T/C (second compound 0.1 µM, first compound 1 µM): 45.1%; viability, T/C (second compound 0.1 µM, first compound 3.16 µM): 39.8%; viability, T/C (second compound 0.1 µM, first compound 10 µM): 29.1%; viability, T/C (second compound 0.316 µM, first compound 0.0316 µM): 42.2%; viability, T/C (second compound 0.316 µM, first compound 0.1 µM): 42.6%; viability, T/C (second compound 0.316 µM, first compound 0.316 µM): 43%; viability, T/C (second compound 0.316 µM, first compound 1 µM): 41%; viability, T/C (second compound 0.316 µM, first compound 3.16 µM): 36.8%; viability, T/C (second compound 0.316 µM, first compound 10 µM): 30.3%; viability, T/C (second compound 1 µM, first compound 0.0316 µM): 46.2%; viability, T/C (second compound 1 µM, first compound 0.1 µM): 34.2%; viability, T/C (second compound 1 µM, first compound 0.316 µM): 45.8%; viability, T/C (second compound 1 µM, first compound 1 µM): 42.7%; viability, T/C (second compound 1 µM, first compound 3.16 µM): 40.9%; viability, T/C (second compound 1 µM, first compound 10 µM): 24%; viability, T/C (second compound 3.16 µM, first compound 0.0316 µM): 32.8%; viability, T/C (second compound 3.16 µM, first compound 0.1 µM): 35%; viability, T/C (second compound 3.16 µM, first compound 0.316 µM): 40.6%; viability, T/C (second compound 3.16 µM, first compound 1 µM): 36.5%; viability, T/C (second compound 3.16 µM, first compound 3.16 µM): 34.8%; viability, T/C (second compound 3.16 µM, first compound 10 µM): 23.1%; viability, T/C (second compound 10 µM, first compound 0.0316 µM): 34%; viability, T/C (second compound 10 µM, first compound 0.1 µM): 35.5%; viability, T/C (second compound 10 µM, first compound 0.316 µM): 33.4%; viability, T/C (second compound 10 µM, first compound 1 µM): 33.8%; viability, T/C (second compound 10 µM, first compound 3.16 µM): 30%; viability, T/C (second compound 10 µM, first compound 10 µM): 20.5%
